Data taken from the NIST ThermoML archive (doi:10.1021/je0502593).
± gives the expanded uncertainty stated by the source.

Tests used:
[1] = 101.33 kPa, Liquid, Capillary tube (Ostwald / Ubbelohde) method
[2] = xn = mol fraction of the nth substance listed; conditions: 101 kPa, Liquid, Capillary tube (Ostwald / Ubbelohde) method, x1 = 0.364

CC1CCCCC1 [methylcyclohexane]
[1]
Conditions	viscosity [mPa·s]
298.61 K	0.7341 ± 0.0061
303.63 K	0.6844 ± 0.0058
308.95 K	0.636 ± 0.0054
317.71 K	0.5669 ± 0.005
323.66 K	0.5268 ± 0.0047
328.77 K	0.4964 ± 0.0045
333.69 K	0.469 ± 0.0043

FC(F)(F)C1(F)C(F)(F)C(F)(F)C(F)(F)C(F)(F)C1(F)F [perfluoro(methylcyclohexane)]
[1]
Conditions	viscosity [mPa·s]
319.2 K	1.031 ± 0.0097
320.16 K	1.011 ± 0.0095
323.18 K	0.9582 ± 0.0091
328.13 K	0.8787 ± 0.0084
333.11 K	0.8074 ± 0.0078

FC(F)(F)C1(F)C(F)(F)C(F)(F)C(F)(F)C(F)(F)C1(F)F [perfluoro(methylcyclohexane)] + CC1CCCCC1
[2]
Conditions	viscosity [mPa·s]
320.16 K	0.7472 ± 0.014
320.19 K	0.728 ± 0.014
320.34 K	0.689 ± 0.0069
320.5 K	0.6723 ± 0.0061
320.74 K	0.6544 ± 0.0058
321 K	0.6428 ± 0.0057
321.39 K	0.6292 ± 0.0055
321.96 K	0.6151 ± 0.0054
322.62 K	0.6018 ± 0.0053
324.05 K	0.5798 ± 0.0052
325.5 K	0.5617 ± 0.005
326.98 K	0.5452 ± 0.0049
328.41 K	0.5313 ± 0.0048
330.08 K	0.517 ± 0.0047
331.6 K	0.5034 ± 0.0046
333.21 K	0.4923 ± 0.0045
334.85 K	0.4806 ± 0.0044
336.69 K	0.4679 ± 0.0044
338.48 K	0.4558 ± 0.0043
340.38 K	0.4438 ± 0.0042
